Measurements: the NIST ThermoML archive (doi:10.1021/je9002114)
± gives the expanded uncertainty stated by the source.

How the values were obtained:
[1] = 298.15 K; for surface tension liquid-gas: Ring tensiometer; for mass density: 101.33 kPa, Liquid
[2] = xn = mol fraction of the nth substance listed; details: 298.15 K, Ring tensiometer

C1COCCO1 [1,4-dioxane]
[1]
Details | mass density [kg/m3] | surface tension liquid-gas [mN/m]
– | 1027.82 ± 0.6 | 32.71 ± 0.49

CCCCOC(C)=O [butyl ethanoate]
[1]
Details | mass density [kg/m3] | surface tension liquid-gas [mN/m]
– | 876.38 ± 0.82 | 24.85 ± 0.41

CCCCOC(C)=O [butyl ethanoate] + C1COCCO1
[2]
Details | surface tension liquid-gas [mN/m]
x1 = 0.05 | 31.19 ± 0.47
x1 = 0.0975 | 30.51 ± 0.47
x1 = 0.1457 | 29.87 ± 0.46
x1 = 0.1995 | 29.32 ± 0.46
x1 = 0.2485 | 28.88 ± 0.45
x1 = 0.2883 | 28.55 ± 0.45
x1 = 0.3445 | 28.13 ± 0.44
x1 = 0.3932 | 27.79 ± 0.44
x1 = 0.4475 | 27.47 ± 0.44
x1 = 0.4929 | 27.21 ± 0.43
x1 = 0.5486 | 26.93 ± 0.43
x1 = 0.592 | 26.69 ± 0.43
x1 = 0.6429 | 26.45 ± 0.43
x1 = 0.6933 | 26.2 ± 0.42
x1 = 0.7466 | 25.97 ± 0.42
x1 = 0.7954 | 25.8 ± 0.42
x1 = 0.8438 | 25.56 ± 0.42
x1 = 0.8901 | 25.36 ± 0.41
x1 = 0.9419 | 25.16 ± 0.41

CCCCOC(C)=O [butyl ethanoate] + CN(C)C=O
[2]
Details | surface tension liquid-gas [mN/m]
x1 = 0.0508 | 35.02 ± 0.52
x1 = 0.0995 | 33.45 ± 0.5
x1 = 0.1441 | 32.35 ± 0.49
x1 = 0.1809 | 31.7 ± 0.48
x1 = 0.25 | 30.5 ± 0.47
x1 = 0.2962 | 29.75 ± 0.46
x1 = 0.3447 | 29.19 ± 0.45
x1 = 0.3904 | 28.66 ± 0.45
x1 = 0.4455 | 28.19 ± 0.44
x1 = 0.4954 | 27.69 ± 0.44
x1 = 0.5443 | 27.35 ± 0.43
x1 = 0.5956 | 27.07 ± 0.43
x1 = 0.648 | 26.66 ± 0.43
x1 = 0.6993 | 26.36 ± 0.42
x1 = 0.7466 | 26.16 ± 0.42
x1 = 0.7935 | 25.81 ± 0.42
x1 = 0.8467 | 25.65 ± 0.42
x1 = 0.8983 | 25.47 ± 0.42
x1 = 0.9464 | 25.26 ± 0.41

CN(C)C=O [dimethylformamide]
[1]
Details | mass density [kg/m3] | surface tension liquid-gas [mN/m]
– | 943.81 ± 0.64 | 36.98 ± 0.54

CCCCCCOC(C)=O [hexyl ethanoate]
[1]
Details | mass density [kg/m3] | surface tension liquid-gas [mN/m]
– | 868.52 ± 0.84 | 26.39 ± 0.42

CCCCCCOC(C)=O [hexyl ethanoate] + C1COCCO1
[2]
Details | surface tension liquid-gas [mN/m]
x1 = 0.0467 | 32.56 ± 0.49
x1 = 0.0925 | 32.06 ± 0.48
x1 = 0.1414 | 31.56 ± 0.48
x1 = 0.1905 | 31.1 ± 0.47
x1 = 0.2422 | 30.62 ± 0.47
x1 = 0.2921 | 30.17 ± 0.46
x1 = 0.3417 | 29.79 ± 0.46
x1 = 0.3934 | 29.43 ± 0.46
x1 = 0.4434 | 29.11 ± 0.45
x1 = 0.495 | 28.81 ± 0.45
x1 = 0.5433 | 28.56 ± 0.45
x1 = 0.5962 | 28.29 ± 0.44
x1 = 0.6408 | 28.09 ± 0.44
x1 = 0.6859 | 27.91 ± 0.44
x1 = 0.7406 | 27.71 ± 0.44
x1 = 0.7981 | 27.52 ± 0.44
x1 = 0.8426 | 27.38 ± 0.43
x1 = 0.8954 | 27.22 ± 0.43
x1 = 0.9448 | 27.12 ± 0.43

CCCCCCOC(C)=O [hexyl ethanoate] + CN(C)C=O
[2]
Details | surface tension liquid-gas [mN/m]
x1 = 0.0495 | 35.78 ± 0.52
x1 = 0.0964 | 35.06 ± 0.52
x1 = 0.1435 | 34.43 ± 0.51
x1 = 0.198 | 33.72 ± 0.5
x1 = 0.2432 | 33.16 ± 0.5
x1 = 0.299 | 32.51 ± 0.49
x1 = 0.349 | 31.96 ± 0.48
x1 = 0.397 | 31.46 ± 0.48
x1 = 0.444 | 31.02 ± 0.47
x1 = 0.4969 | 30.57 ± 0.47
x1 = 0.5461 | 30.12 ± 0.46
x1 = 0.5945 | 29.72 ± 0.46
x1 = 0.6434 | 29.35 ± 0.46
x1 = 0.6908 | 29.01 ± 0.45
x1 = 0.7457 | 28.61 ± 0.45
x1 = 0.7896 | 28.31 ± 0.44
x1 = 0.8466 | 27.99 ± 0.44
x1 = 0.8951 | 27.67 ± 0.44
x1 = 0.9494 | 27.41 ± 0.44

CCCCCOC(C)=O [pentyl ethanoate]
[1]
Details | mass density [kg/m3] | surface tension liquid-gas [mN/m]
– | 870.17 ± 0.83 | 25.21 ± 0.41

CCCCCOC(C)=O [pentyl ethanoate] + C1COCCO1
[2]
Details | surface tension liquid-gas [mN/m]
x1 = 0.05 | 32.35 ± 0.49
x1 = 0.1026 | 31.65 ± 0.48
x1 = 0.1516 | 31.05 ± 0.47
x1 = 0.2062 | 30.52 ± 0.47
x1 = 0.2562 | 30.05 ± 0.46
x1 = 0.311 | 29.48 ± 0.46
x1 = 0.3637 | 29.01 ± 0.45
x1 = 0.4209 | 28.58 ± 0.45
x1 = 0.4616 | 28.27 ± 0.44
x1 = 0.5112 | 27.92 ± 0.44
x1 = 0.5614 | 27.55 ± 0.44
x1 = 0.6136 | 27.3 ± 0.43
x1 = 0.6558 | 27.07 ± 0.43
x1 = 0.7043 | 26.89 ± 0.43
x1 = 0.7538 | 26.71 ± 0.43
x1 = 0.8033 | 26.56 ± 0.43
x1 = 0.8511 | 26.39 ± 0.42
x1 = 0.8956 | 26.26 ± 0.42
x1 = 0.9449 | 26.12 ± 0.42

CCCCCOC(C)=O [pentyl ethanoate] + CN(C)C=O
[2]
Details | surface tension liquid-gas [mN/m]
x1 = 0.05 | 34.9 ± 0.51
x1 = 0.0941 | 34.08 ± 0.51
x1 = 0.1466 | 33.24 ± 0.5
x1 = 0.198 | 32.24 ± 0.49
x1 = 0.2452 | 31.67 ± 0.48
x1 = 0.2909 | 30.99 ± 0.47
x1 = 0.3496 | 30.37 ± 0.47
x1 = 0.3978 | 29.95 ± 0.46
x1 = 0.4481 | 29.3 ± 0.46
x1 = 0.4998 | 28.87 ± 0.45
x1 = 0.5453 | 28.59 ± 0.45
x1 = 0.5998 | 28.05 ± 0.44
x1 = 0.6445 | 27.78 ± 0.44
x1 = 0.6901 | 27.39 ± 0.44
x1 = 0.7499 | 27.09 ± 0.43
x1 = 0.7958 | 26.83 ± 0.43
x1 = 0.8477 | 26.51 ± 0.43
x1 = 0.8965 | 26.23 ± 0.42
x1 = 0.9397 | 26.09 ± 0.42
